Starred links: 1 amine or outer side, 2 acyl side, 3 side chain; linkers in the order of their positions; H or OH if unused. Positions of bridges follow the written chain, without caps; N, C: chain ends. Non-standard residues stand in square brackets, D forms with d. Residues, ends and D or L forms follow the SMILES beside them. Phe(3-(4R-CO-2-thiazolinyl)) = O=C([C@H](Cc1cccc(C2=N[C@H](C(=O)[*:3])CS2)c1)N[*:1])[*:2]; dCha = N[C@H](CC1CCCCC1)C(=O)O; Nle = CCCC[C@H](N)C(=O)O

The data set can be described thus: Membrane permeability of synthesized cyclic peptides by PAMPA (Measurement Method A: 1 μmol/L; Method B: 10 μmol/L). Type of data set: in vitro ADME. The following applies: Measurement method A, 25° C., 4 hours. On the procedure:
Evaluation of membrane permeability of synthesized cyclic peptide by PAMPA method In order to compare and examine the membrane permeability of the synthesized cyclic peptide, parallel artificial membrane permeability assay (PAMPA) was carried out.
An artificial phospholipid membrane was produced by adding 5 μL of a phospholipid organic solvent solution consisting of L-α-phosphatidylcholine (Avanti Polar Lipids, Inc., Cat. 840051P, 1.67%), 1,2-dioleoyl-sn-glycero-3-phospho-L-serine (Avanti Polar Lipids, Inc., Cat. 840035P, 0.33%), and n-dodecane special grade (Wako Pure Chemical Industries, Ltd., 047-21612)/1-octanol reagent special grade (Kanto Chemical Co., Inc., Cat. 31013-08)=10:1 to Filter Plate (Merck Millipore Corporation, Cat. MAIPN4550).
475 μL of 50 mmol/L potassium phosphate buffer (KPB, pH 7.4 or pH 6.5) was added to 25 μL of a DMSO solution containing the compound at a concentration of 20 μmol/L, so that the compound was diluted to a final concentration of 1 μmol/L. 300 μL of the compound solution was added to the lower side (donor side) of PAMPA 96-well plate (Filter Plate (Merck Millipore Corporation, Cat. MAIPN4550)) with an artificial phospholipid membrane being interposed therebetween. 200 μL of 5% DMSO KPB (pH 7.4) was added to the upper side (acceptor side) with the artificial phospholipid membrane being interposed therebetween. A permeation test through an artificial phospholipid membrane was carried out at 25° C. for 4 hours. The compound concentration in the solution in the donor plate and the acceptor plate was measured by LC/MS/MS, and the membrane permeation rate (Pe) of the compound was calculated from the following formula, assuming that C0 is an initial compound concentration in donor solution, t is a test time, A is a membrane filter area=0.3 cm^2, VD is a donor solution amount=300 μL, VA is an acceptor solution amount=200 μL, and CD(t) is a compound concentration in donor solution at time t, CA(t) is a compound concentration in acceptor solution at time t, and Cequilibrium=[CD(t)*VD+CA(t)*VA]/(VD+VA).
475 μL of 50 mmol/L potassium phosphate buffer (KPB, pH 7.4 or pH 6.5) was added to 25 μL of a DMSO solution containing the compound at a concentration of […], so that the compound was diluted to a final concentration of 10 μmol/L. The compound solution was added 300 μL each to the lower side (donor side) of an artificial phospholipid membrane of PAMPA 96-well plate (Filter Plate (Merck Millipore Corporation, Cat. MAIPN4550)). 200 μL of 5% DMSO KPB (pH 7.4) was added to the upper side (acceptor side) with the artificial phospholipid membrane being interposed therebetween. A permeation test through an artificial phospholipid membrane was carried out at 25° C. for 4 hours. The compound concentration in the solution in the donor plate and the acceptor plate was measured by LC/MS/MS, and the membrane permeation rate (Pe) of the compound was calculated from the following formula, assuming that Co is an initial compound concentration in donor solution, t is a test time, A is a membrane filter area=0.3 cm^2, VD is a donor solution amount=300 μL, VA is an acceptor solution amount=200 μL, and CD(t) is a compound concentration in donor solution at time t, CA(t) is a compound concentration in acceptor solution at time t, and Cequilibrium=[CD(t)*VD+CA(t)*VA]/(VD+VA).
The membrane permeability (Pe(10^−6 cm/s)) obtained by this method is described in the following table.
Evaluation standards are as follows.
A general note: PAMPA measures passive passage across an artificial lipid membrane.
As to `N=C(N)NCCC[C@@H]1NC(=O)[C@H](Cc2c[nH]c3ccccc23)NC(=O)[C@@H](CC2CCCCC2)NC(=O)[C@@H]2CCCN2C(=O)[C@@H]2CSC(=N2)C2=Cc3ccc(cc3S2)C[C@@H](C(N)=O)NC1=O` [2-2], the “Pe(10^−6 cm/sec)” value is on record as “+++ (0.5<Pe (10^−6 cm/s))”.

`N=C(N)NCCC[C@@H]1NC(=O)[C@H](Cc2c[nH]c3ccccc23)NC(=O)[C@@H](CC2CCCCC2)NC(=O)[C@@H]2CCCN2C(=O)[C@@H]2CSC(=N2)c2cnc3cc(ccc3c2)C[C@@H](C(N)=O)NC1=O` [2-4]: the “Pe(10^−6 cm/sec)” value is “+++ (0.5<Pe (10^−6 cm/s))”.

Take `N=C(N)NCCC[C@@H]1NC(=O)[C@H](Cc2c[nH]c3ccccc23)NC(=O)[C@@H](CC2CCCCC2)NC(=O)[C@@H]2CCCN2C(=O)[C@@H]2CSC(=N2)c2sccc2C[C@@H](C(N)=O)NC1=O` [2-17]: the “Pe(10^−6 cm/sec)” value is listed as “+++ (0.5<Pe (10^−6 cm/s))”.

In the case of `N=C(N)NCCC[C@@H]1NC(=O)[C@H](Cc2c[nH]c3ccccc23)NC(=O)[C@@H](CC2CCCCC2)NC(=O)[C@@H]2CCCN2C(=O)[C@@H]2CSC(=N2)c2ccc(cn2)C[C@@H](C(N)=O)NC1=O` [3-1], the “Pe(10^−6 cm/sec)” value was “+++ (0.5<Pe (10^−6 cm/s))”.

For the molecule `N=C(N)NCCC[C@@H]1NC(=O)[C@H](Cc2c[nH]c3ccccc23)NC(=O)[C@@H](CC2CCCCC2)NC(=O)[C@@H]2CCCN2C(=O)[C@@H]2CSC(=N2)C[C@@H](C(N)=O)NC1=O` [3-5], the “Pe(10^−6 cm/sec)” value was “++ (0.2<Pe (10^−6 cm/s)≤0.5)”.

For `NC(=O)[C@@H]1Cc2csc(c2)C2=N[C@@H](CCS2)C(=O)N[C@H](Cc2ccc(O)cc2)C(=O)NCC(=O)NCC(=O)N[C@H](Cc2ccccc2)C(=O)N1` [4-2], the “Pe(10^−6 cm/sec)” value is listed as “+++ (0.5<Pe (10^−6 cm/s))”.

Regarding `NC(=O)[C@@H]1Cc2csc(c2)C2=N[C@@H](CS2)C(=O)N[C@H](Cc2ccc(O)cc2)C(=O)NCC(=O)NCC(=O)N[C@H](Cc2ccccc2)C(=O)N1` [4-3], the “Pe(10^−6 cm/sec)” value is “+++ (0.5<Pe (10^−6 cm/s))”.

As to `CC(C)C[C@@H]1NC(=O)[C@@H](C(C)C)NC(=O)[C@@H]2CSC(=N2)c2cc(cs2)C[C@@H](C(N)=O)NC(=O)[C@@H](CCC(=O)O)NC(=O)[C@@H](Cc2c[nH]c3ccccc23)NC1=O` [4-4], the “Pe(10^−6 cm/sec)” value is reported as “++ (0.2<Pe (10^−6 cm/s)≤0.5)”.

With `C[C@@H](O)[C@@H]1NC(=O)[C@H](CCCCN)NC(=O)[C@@H](Cc2c[nH]c3ccccc23)NC(=O)[C@H](Cc2ccccc2)NC(=O)[C@@H]2CSC(=N2)c2cc(cs2)C[C@@H](C(N)=O)NC1=O` [4-6], the “Pe(10^−6 cm/sec)” value is recorded as “+ (0.01<Pe (10^−6 cm/s)≤0.2)”.

Regarding `CCCC[C@@H]1NC(=O)[C@H](CCCCN)NC(=O)C(CC(C)C)NC(=O)[C@H](CC(C)C)NC(=O)[C@@H]2CSC(=N2)c2cc(cs2)C[C@@H](C(N)=O)NC(=O)C(Cc2ccccc2)NC(=O)[C@H](C)NC(=O)[C@H](C)NC(=O)[C@@H]2CCCN2C1=O` (stereo partly shown) [4-8], the “Pe(10^−6 cm/sec)” value is recorded as “++ (0.2<Pe (10^−6 cm/s)≤0.5)”.

`CCCC[C@@H]1NC(=O)[C@H](CCCCN)NC(=O)C(CC(C)C)NC(=O)[C@H](CC(C)C)NC(=O)[C@@H]2CSC(=N2)c2cc(cs2)C[C@@H](C(N)=O)NC(=O)C(Cc2ccccc2)NC(=O)[C@H](CO)NC(=O)[C@H](C)NC(=O)[C@@H]2CCCN2C1=O` (stereo partly shown) [4-9]: the “Pe(10^−6 cm/sec)” value was “+ (0.01<Pe (10^−6 cm/s)≤0.2)”.

Regarding `CC(C)C[C@@H]1NC(=O)[C@@H](C(C)C)NC(=O)[C@@H]2CSC(=N2)c2cccc(c2)C[C@@H](C(N)=O)NC(=O)[C@@H](CCC(=O)O)NC(=O)[C@@H](Cc2c[nH]c3ccccc23)NC1=O` [5-1] ([dV]L[dW][dE][Phe(3-(4R-CO-2-thiazolinyl))]-NH2; lactam N-5), the “Pe(10^−6 cm/sec)” value is on record as “+++ (0.5<Pe (10^−6 cm/s))”.

`C[C@@H]1NC(=O)CSC[C@@H](C(N)=O)NC(=O)[C@@H](Cc2ccccc2)NC(=O)CNC(=O)CNC(=O)[C@@H](Cc2ccc(O)cc2)NC1=O` [7-2] ({CH2CO}-A[dY]GG[dF]C-NH2; thioether N-6): the “Pe(10^−6 cm/sec)” value is recorded as “+ (0.01<Pe (10^−6 cm/s)≤0.2)”.

In the case of `C[C@@H]1NC(=O)CSC[C@@H](C(N)=O)NC(=O)[C@H]([C@@H](C)O)NC(=O)[C@H](CCCCN)NC(=O)[C@@H](Cc2c[nH]c3ccccc23)NC(=O)[C@H](Cc2ccccc2)NC1=O` [7-3] ({CH2CO}-AF[dW]KTC-NH2; thioether N-6), the “Pe(10^−6 cm/sec)” value is on record as “− (0.01≤Pe (10^−6 cm/s))”.

For `CC(C)C[C@@H]1NC(=O)[C@@H](C(C)C)NC(=O)[C@H](C)NC(=O)CSC[C@@H](C(N)=O)NC(=O)[C@@H](CCC(=O)O)NC(=O)[C@@H](Cc2c[nH]c3ccccc23)NC1=O` [7-4] ({CH2CO}-A[dV]L[dW][dE]C-NH2; thioether N-6), the “Pe(10^−6 cm/sec)” value was “+ (0.01<Pe (10^−6 cm/s)≤0.2)”.

For the molecule `CCCC[C@@H]1NC(=O)[C@H](CCCCN)NC(=O)[C@H](CC(C)C)NC(=O)[C@H](CC(C)C)NC(=O)[C@H](C)NC(=O)CSC[C@@H](C(N)=O)NC(=O)[C@H](Cc2ccccc2)NC(=O)[C@H](C)NC(=O)[C@H](C)NC(=O)[C@@H]2CCCN2C1=O` [7-5] ({CH2CO}-ALLK[Nle]PAAFC-NH2; thioether N-10), the “Pe(10^−6 cm/sec)” value is “Below the limit”.

`CCCC[C@@H]1NC(=O)[C@H](CCCCN)NC(=O)[C@H](CC(C)C)NC(=O)[C@H](CC(C)C)NC(=O)[C@H](C)NC(=O)CSC[C@@H](C(N)=O)NC(=O)[C@H](Cc2ccccc2)NC(=O)[C@H](CO)NC(=O)[C@H](C)NC(=O)[C@@H]2CCCN2C1=O` [7-6] ({CH2CO}-ALLK[Nle]PASFC-NH2; thioether N-10): the “Pe(10^−6 cm/sec)” value is “Below the limit”.

Regarding `C[C@@H]1NC(=O)CC[C@@H](C(N)=O)NC(=O)[C@H](CCCNC(=N)N)NC(=O)[C@H](Cc2c[nH]c3ccccc23)NC(=O)[C@@H](CC2CCCCC2)NC(=O)[C@@H]2CCCN2C1=O` [8-1] (AP[dCha]WRE-NH2; lactam N-6), the “Pe(10^−6 cm/sec)” value is listed as “+ (0.01<Pe (10^−6 cm/s)≤0.2)”.

`C[C@@H]1NC(=O)CC[C@@H](C(N)=O)NC(=O)[C@@H](Cc2ccccc2)NC(=O)CNC(=O)CNC(=O)[C@@H](Cc2ccc(O)cc2)NC1=O` [8-2] (A[dY]GG[dF]E-NH2; lactam N-6): the “Pe(10^−6 cm/sec)” value is on record as “+ (0.01<Pe (10^−6 cm/s)≤0.2)”.

For `CC(C)C[C@@H]1NC(=O)[C@@H](C(C)C)NC(=O)[C@H](C)NC(=O)CC[C@@H](C(N)=O)NC(=O)[C@@H](CCC(=O)O)NC(=O)[C@@H](Cc2c[nH]c3ccccc23)NC1=O` [8-3] (A[dV]L[dW][dE]E-NH2; lactam N-6), the “Pe(10^−6 cm/sec)” value is “− (0.01≤Pe (10^−6 cm/s))”.

For `CC(=O)N[C@H]1CSSC[C@@H](C(N)=O)NC(=O)[C@@H](CCC(=O)O)NC(=O)[C@@H](Cc2c[nH]c3ccccc23)NC(=O)[C@H](CC(C)C)NC(=O)[C@@H](C(C)C)NC1=O` [9-2] (Ac-C[dV]L[dW][dE]C-NH2; disulfide 1-6), the “Pe(10^−6 cm/sec)” value is “+ (0.01<Pe (10^−6 cm/s)≤0.2)”.

On to `CC(=O)N[C@H]1CSSC[C@@H](C(N)=O)NC(=O)[C@H]([C@@H](C)O)NC(=O)[C@H](CCCCN)NC(=O)[C@@H](Cc2c[nH]c3ccccc23)NC(=O)[C@H](Cc2ccccc2)NC1=O` [9-3] (Ac-CF[dW]KTC-NH2; disulfide 1-6), for which the “Pe(10^−6 cm/sec)” value is “Below the limit”.

For the molecule `CCCC[C@@H]1NC(=O)[C@H](CCCCN)NC(=O)[C@H](CC(C)C)NC(=O)[C@H](CC(C)C)NC(=O)[C@@H](NC(C)=O)CSSC[C@@H](C(N)=O)NC(=O)[C@H](Cc2ccccc2)NC(=O)[C@H](C)NC(=O)[C@H](C)NC(=O)[C@@H]2CCCN2C1=O` [9-4] (Ac-CLLK[Nle]PAAFC-NH2; disulfide 1-10), the “Pe(10^−6 cm/sec)” value is listed as “Below the limit”.

Regarding `C[C@@H]1NC(=O)Cn2cc(nn2)C[C@@H](C(N)=O)NC(=O)[C@H](CCCNC(=N)N)NC(=O)[C@H](Cc2c[nH]c3ccccc23)NC(=O)[C@@H](CC2CCCCC2)NC(=O)[C@@H]2CCCN2C1=O` [10-1], the “Pe(10^−6 cm/sec)” value is on record as “+ (0.01<Pe (10^−6 cm/s)≤0.2)”.

As to `CC(C)C[C@@H]1NC(=O)[C@@H](C(C)C)NC(=O)[C@H](C)NC(=O)Cn2cc(nn2)C[C@@H](C(N)=O)NC(=O)[C@@H](CCC(=O)O)NC(=O)[C@@H](Cc2c[nH]c3ccccc23)NC1=O` [10-3], the “Pe(10^−6 cm/sec)” value was “− (0.01≤Pe (10^−6 cm/s))”.

The values above are taken from patent US11319347B2, “Peptide compound and method for producing same, composition for screening use, and method for selecting peptide compound” (FUJIFILM Corporation, priority 2017, dated 2022).
